In patent US9393288B2, “Methods of treating diseases associated with PPARγ” (The University of Vermont and State Agricultural College, priority 2012, dated 2016):
“Also recorded” adds a separate entry of the source.

Columns and labels:
Format in all cases: in vivo, rat
[1] = test system: parenchymal arterioles (PA); experiment: Pressurized arteriograph: vascular reactivity and structure of PA from relaxin-treated NP Sprague Dawley rats; details: for Kind of structural remodeling of PA: normotensive NP rats
Source text: Animals and Treatment Groups: All procedures were approved by the Institutional Animal Care and Use Committee and conducted in accordance with the National Institutes of Health Guide for the Care and Use of Laboratory Animals. Female virgin NP Sprague Dawley rats (250-300 g, 14-16 weeks, Charles River, Canada) were used for all experiments and housed in the University of Vermont Animal Care Facility. Animals were randomly selected and grouped as untreated (N=4), treated with recombinant human relaxin-2 (relaxin, 4 μg/hr; N=14), relaxin plus a specific PPARγ inhibitor GW9662 (10 mg/kg daily in food; N=8), or vehicle (20 mM sodium acetate; N=14) for 10 days through osmotic minipumps (Alzet 2ML2, Durect Corp., Cupertino, Calif., USA). GW9662 treatment was started 1 day before and for the duration of relaxin treatment to ensure PPARγ was inhibited. Animals were anesthetized with 3% isoflurane and minipumps implanted subcutaneously in the back of the neck. All animals received post-surgical analgesic (buprenorphine, 50 μg/kg, s.c.). Relaxin infusion was continuous for 10 days until animals were euthanized for vessel experiments and tissue collection. The minipumps used were capable of delivering relaxin for 14 days and thus tissue collection was within this duration.
Vessel Preparation and Pressurized Arteriograph System: After collecting trunk blood, the brain was quickly removed and placed in cold physiological salt solution (PSS). In the first set of experiments, PA between the M1 and M2 region of the MCA territory and the MCA from the same animals were carefully isolated from vehicle- or relaxin-treated animals and mounted on glass cannulas in a dual-chambered arteriograph such that one PA and one MCA from each animal were studied simultaneously. PA were identified as branches off the MCA that penetrated into the brain tissue, as previously described (25). In the second set of experiments, PA from the same brain region as above were dissected from relaxin+GW9662-treated animal and compared to PA from vehicle- and relaxin-treated animals. MCA were not studied in this second set of animals because there was no effect of relaxin on that segment of the vasculature. The proximal cannulas were connected to an in-line pressure transducer and a servo-null pressure control system (Living Systems Instrumentation, Burlington, Vt., USA) that allowed intravascular pressure to be maintained at a set pressure or changed at a variable rate. The distal cannulas were closed during the experiment to avoid flow-mediated responses. Temperature and pH were continuously measured and maintained at 37.0±0.5° C. and 7.40±0.05, respectively. Measurements of inner diameter (ID) and wall thickness (WT) were made via video microscopy (Living Systems Instrumentation).
Vascular Reactivity and Structural Characteristics in PA and MCA: For the first set of experiments, PA and MCA were equilibrated for 1 hour at 25 mmHg, after which myogenic activity was determined by stepwise increases in pressure from 40 to 100 mmHg for PA or 50 to 175 mmHg for MCA. ID and WT were measured at each pressure once stable. Changes in ID and WT were measured in PA only in response to small- (SKCa) and intermediate- (IKCa) conductance calcium-activated potassium channels blockers, apamin (3×10^−7 M) and TRAM-34 (10^−6 M), respectively. PA are unique in that the contribution of endothelium-derived hyperpolarizing factors (EDHF) to tone is greater than most vessels Cipolla et al. (2009) Stroke 40, 1451-1457. Thus, inhibition of SKCa/IKCa channels, a critical component in the EDHF pathway, causes constriction in PA Cipolla et al. (2009) Stroke 40, 1451-1457. We therefore assessed the effect of relaxin on constriction of PA in response to SKCa/IKCa channel inhibition in order to assess this unique pathway. […]

VEGF = VEGF expression in brain cortex (immunohistochemistry and qPCR), SHR; details: SHR-F-Rln vs SHR-F
Protocol: (§1) After dissecting PA and MCA for isolated vessel experiments, the remaining MCA, PA, and brain cortex from the MCA territory of 4-6 rats were collected and stored at −80° C. in RNase inhibitor (1 unit/μl, RiboLock, Fermentas, Glen Burnie, Md., USA) to determine mRNA expression levels of target genes using real-time qPCR methods. Target genes were assessed using Assays on Demand from Applied Biosystems. […] All primers were designed across an exon-exon junction to avoid detecting genomic DNA, so no DNase treatment was required. Housekeeping gene β-actin was used in all qPCR experiments as a control. Standard techniques for real-time qPCR were performed by the Vermont Cancer Center DNA analysis facility at the University of Vermont, as described previously (Cipolla, M. J., Smith, J., Kohlmeyer, M. M., and Godfrey, J. A. (2009) SKCa and IKCa Channels, myogenic tone, and vasodilator responses in middle cerebral arteries and parenchymal arterioles: effect of ischemia and reperfusion. Stroke 40, 1451-1457).
(§2) To investigate the mechanisms by which relaxin causes selectively remodeling of PA, mRNA expression of VEGF, MMP-2, and MMP-9 were compared between MCA, PA, brain cortex. To determine if relaxin activates peroxisome proliferator-activated receptor-gamma (PPARγ), expression levels of PPARγ target genes fatty acid binding protein-4 (FABP4) and plasminogen activator inhibitor-1 (PAI-1) were determined in mesenteric adipose tissue. Expression levels of PPARγ and its target genes PAI-1 and liver X receptors-α (LXR-α) were also determined in brain cortex (Chan, S. L., and Cipolla, M. J. (2012) Determination of PPARgamma activity in adipose tissue and spleen. J Immunoassay Immunochem 33, 314-324).
Brain cortex from the MCA region from WKY-F, SHR-F and SHR-F-Rln groups was collected and fixed in 4% formaldehyde for 48 hours at 4° C. and embedded in paraffin. Brain cortex was cut into 5 μm sections. […] Staining intensity was assessed using a semi-quantitative scoring system from 0 (lowest staining intensity) to 5 (highest staining intensity) in a blinded fashion. […]

[2] = test system: PPARγ and PPARγ target genes; experiment: Expression of PPARγ and PPARγ target genes (qPCR) in adipose tissue and brain cortex, SHR
Protocol: as §1, §2

[3] = relaxin- vs vehicle-treated NP rats
[4] = relaxin- vs vehicle-treated NP rats, all pressures studied
[5] = SHR-F-Rln vs SHR-F, listed as Relaxin

Substance: relaxin
- Kind of structural remodeling of PA [1]: hypertrophic outward remodeling
- Kind of structural remodeling of PA ([1]; listed as Relaxin): outward hypertrophic remodeling
- Distensibility of PA ([1]; normotensive rats): without affecting
- CSA of PA wall [1, 3]: increased
- OD of PA [1, 3]: increased
- Passive WT of PA [1, 3]: increased
- Response of PA to SKCa/IKCa inhibition (apamin, TRAM-34) [1, 3]: no difference
- Tone of PA [1, 3]: did not significantly affect
- Active diameter of PA [1, 4]: increase
- Passive ID of PA [1, 4]: significantly increased
- VEGF mRNA expression in brain cortex (VEGF): increased
- VEGF immunoreactivity (staining intensity) in brain cortex (VEGF; p<0.05): significantly increased
- VEGF mRNA expression in brain cortex (VEGF; listed as Relaxin): significantly increased
- FABP4 expression in adipose tissue [2, 5]: decreased both FABP4 and PAI-1 expressions in adipose tissue, although this was not statistically significant; also recorded: decreased expression of FABP4 and PAI-1 in adipose tissue, although this was not statistically significant
- PAI-1 expression in adipose tissue [2, 5]: decreased both FABP4 and PAI-1 expressions in adipose tissue, although this was not statistically significant; also recorded: decreased expression of FABP4 and PAI-1 in adipose tissue, although this was not statistically significant
- Expression of PPARγ and its target genes (PAI-1, LXR-α) in brain cortex ([2]; WKY-F, SHR-F, SHR-F-Rln): did not affect
